According to paper PMC10221222 (Pharmaceutics, 2023):

test system: CT26 murine colon cancer cells; assay: MTT assay in murine cell line CT26; type: cell-based; details: 72 h exposure
Procedure: The MTT assay in the murine cell line CT26 was performed as described in [25].
cells, obtained by MTT assays with 72 h exposure time.

| Compound | IC50 [µM] |
| --- | --- |
| N.N.[Cl][Pt][Cl] [Cisplatin] | 1.85 |

test system: CH1/PA-1 (ovarian teratocarcinoma); assay: not given; details: MTT, 96 h exposure; cited from earlier work

| Compound | IC50 [µM] |
| --- | --- |
| N.N.O=C([O-])C1(C(=O)[O-])CCC1.[Pt+2] [Carboplatin, reference compound] | 0.79 ± 0.11 |
| N.N.[Cl][Pt][Cl] [Cisplatin] | 0.073 ± 0.001 |
| O=C1[O][Pt]2([NH][C@@H]3CCCC[C@H]3[NH]2)[O]C1=O [Oxaliplatin, reference compound] | 0.18 ± 0.01 |
| (OC-6-44)-Acetaodiammine(3-carboxypropanoato)(cyclobutane-1,1-dicarboxylato)platinum(IV) [Complex 2] | 16 ± 6 |
| (OC-6-44)-Acetato(3-carboxypropanoato)(1R,2R-cyclohexane-1,2-diamine)oxalatoplatinum(IV) [Complex 3] | 4.1 ± 0.6 |
| (OC-6-44)-Acetatodiammine(3-carboxypropanoato)dichloridoplatinum(IV) [Complex 1] | 1.2 ± 0.5 |

test system: A549 (non-small cell lung cancer); assay: not given; details: MTT, 96 h exposure; cited from earlier work

| Compound | IC50 [µM] |
| --- | --- |
| N.N.O=C([O-])C1(C(=O)[O-])CCC1.[Pt+2] [Carboplatin, reference compound] | 38 ± 3 |
| N.N.[Cl][Pt][Cl] [Cisplatin] | 3.8 ± 1 |
| O=C1[O][Pt]2([NH][C@@H]3CCCC[C@H]3[NH]2)[O]C1=O [Oxaliplatin, reference compound] | 0.98 ± 0.21 |
| (OC-6-44)-Acetaodiammine(3-carboxypropanoato)(cyclobutane-1,1-dicarboxylato)platinum(IV) [Complex 2] | > 200 |
| (OC-6-44)-Acetato(3-carboxypropanoato)(1R,2R-cyclohexane-1,2-diamine)oxalatoplatinum(IV) [Complex 3] | 70 ± 29 |
| (OC-6-44)-Acetatodiammine(3-carboxypropanoato)dichloridoplatinum(IV) [Complex 1] | 99 ± 17 |

test system: A549 (non-small cell lung cancer); assay: MTT cytotoxicity assay, 96 h exposure, A549 cells; type: cell-based, human; details: pertains to dendrimer concentration for C1–C24
Procedure: (§1) Culture of and 96 h cytotoxicity tests in the human cell lines CH1/PA-1 (ovarian teratocarcinoma), SW480 (colon carcinoma) and A549 (non-small cell lung cancer) were performed as described previously, with the exception that test compounds were dissolved either in sterile water or supplemented MEM and then serially diluted in the latter medium.
(§2) Three human cancer cell lines differing in their chemosensitivity were employed for testing the cytotoxic potencies of all compounds: the broadly sensitive ovarian teratocarcinoma cell line CH1/PA-1, the multidrug-resistant non-small cell lung cancer cell line A549 and the colon cancer cell line SW480 with mostly intermediate sensitivity. This pattern of sensitivity also reflects throughout the data compiled here.

| Compound | IC50 [µM] |
| --- | --- |
| (OC-6-44)-(3-carboxypropanoato)(1R,2R-cyclohexanem-1,2-diamine)hydroxidooxalatoplatinum(IV) [Complex 7] | 66 ± 2 |
| (OC-6-44)-Acetato(3-carboxypropanoato)dichlorido(1R,2R-cyclohexane-1,2-diamine)platinum(IV) [Complex 6] | 2.8 ± 0.1 |
| (OC-6-54)-Acetato(3-carboxypropanoato)(^13C2)oxalato(1R,2R,4R/1S,2S,4S)-(4-trifluoromethyl-cyclohexane-1,2-diamine)platinum(IV) [Complex 5] | 54 ± 6 |

test system: CT26 murine colon cancer allograft; assay: Efficacy study in CT26-allograft-bearing mice (tumor volume, survival); type: in vivo, BALB/c mice; details: vs solvent control; i.v. twice a week for two weeks; C12 7.5 mg/kg, cisplatin 3 mg/kg
Procedure: All drugs were dissolved in 0.9% NaCl.
The promising effects further translate into a prolongation trend of animal survival (Figure 4). While in the cisplatin group, weight loss was critical in addition to tumor necrosis, even smaller tumors tended to get necrotic and broke up in C12-treated animals, making the sacrifice of the animals necessary due to ethical guidelines.

| Compound | maximum tumor growth inhibition effect [%] |
| --- | --- |
| N.N.[Cl][Pt][Cl] [Cisplatin] | 47.6 |

test system: CH1/PA-1 (ovarian teratocarcinoma); assay: MTT cytotoxicity assay, 96 h exposure, CH1/PA-1 cells; type: cell-based, human; details: pertains to dendrimer concentration for C1–C24
Procedure: as §1
as §2, with “sensitivity.” for “sensitivity. This pattern of sensitivity also reflects throughout the data compiled here.”

| Compound | IC50 [µM] |
| --- | --- |
| (OC-6-44)-(3-carboxypropanoato)(1R,2R-cyclohexanem-1,2-diamine)hydroxidooxalatoplatinum(IV) [Complex 7] | 5.2 ± 0.8 |
| (OC-6-44)-Acetato(3-carboxypropanoato)dichlorido(1R,2R-cyclohexane-1,2-diamine)platinum(IV) [Complex 6] | 0.44 ± 0.1 |
| (OC-6-54)-Acetato(3-carboxypropanoato)(^13C2)oxalato(1R,2R,4R/1S,2S,4S)-(4-trifluoromethyl-cyclohexane-1,2-diamine)platinum(IV) [Complex 5] | 6 ± 0.9 |

test system: not listed separately; assay: Reduction by ascorbic acid followed by time-dependent 1H NMR; type: physicochemical; details: 1 mM Pt, 25 eq. ascorbic acid, phosphate-buffered D2O pD 7.4, ambient temperature
Procedure: The reduction of platinum(IV) complexes and representatives of each series of conjugates by ascorbic acid was observed by ^1H NMR spectroscopic measurements at ambient temperature. An amount of 1 mM solutions of platinum(IV) complexes 1–3, 5–7 as well as of the conjugates C2, C11, C13, C22–C24 referred to their corresponding platinum units were prepared in a D2O phosphate-buffered solution (50 mM) at physiological pD = 7.4. Afterwards, ascorbic acid was added as a reducing agent (25 mM, 25 eq.) and ^1H NMR measurements were performed for several days. The reduction behavior for substances 1–3, 5, 6, C2, C11, C13, C22, C23 was monitored by the resulting decrease in intensity of the acetato signal (release of acetic acid). The percentage of reduced species was determined by using the integration ratios of these two signals. Contrarily, ratios of signals of the succinato ligands and free succinic acid were consulted for the reduction determination of substances 7 and C24. However, the reduction half-time of C24 could not be obtained due to the superimposition of the succinato peaks with other signals.
Moreover, the reduction behavior of conjugates in comparison to unattached platinum(IV) complexes was investigated by time-dependent ^1H NMR spectroscopy (Table 3). In general, the reduction behavior is influenced by the nature of the ligands coordinated to the platinum(IV) core. […] In accordance with previous studies, the cisplatin core of substance 1 led to a faster reduction with a reduction half-time of 6 h, whereas only 6% of the carboplatin(IV) analog 2 was reduced after 95 h. Similar to complex 1, the two chlorido ligands of compound 6 allow fast electron transfer, thereby supporting rapid reduction. […] A potential connection between bulkiness and facilitated reduction has been reported in the literature. As further expected, the influence between G2 and G4 dendrimers on the reduction behavior is marginal due to the huge distance to the platinum(IV) core. Therefore, no significant difference in the rate of reduction between conjugates of G2 and G4 dendrimers was observed based on the measurements of C2 and C13, respectively.

| Compound | Reduction Half-Time [h] |
| --- | --- |
| (OC-6-44)-(3-carboxypropanoato)(1R,2R-cyclohexanem-1,2-diamine)hydroxidooxalatoplatinum(IV) [Complex 7] | ~29 |
| (OC-6-44)-Acetaodiammine(3-carboxypropanoato)(cyclobutane-1,1-dicarboxylato)platinum(IV) [Complex 2] | > 95 |
| (OC-6-44)-Acetato(3-carboxypropanoato)(1R,2R-cyclohexane-1,2-diamine)oxalatoplatinum(IV) [Complex 3] | > 165 |
| (OC-6-44)-Acetato(3-carboxypropanoato)dichlorido(1R,2R-cyclohexane-1,2-diamine)platinum(IV) [Complex 6] | ~27 |
| (OC-6-44)-Acetatodiammine(3-carboxypropanoato)dichloridoplatinum(IV) [Complex 1] | ~6 |
| (OC-6-54)-Acetato(3-carboxypropanoato)(^13C2)oxalato(1R,2R,4R/1S,2S,4S)-(4-trifluoromethyl-cyclohexane-1,2-diamine)platinum(IV) [Complex 5] | > 93 |

same assay, conditions: 1:25 ascorbic acid, pD 7.4, ambient temperature; at the time given as bound of the half-time

| percentage of the reduced species when measurement was stopped before the half-time [%] | Compound |
| --- | --- |
| 14 | (OC-6-44)-Acetato(3-carboxypropanoato)(1R,2R-cyclohexane-1,2-diamine)oxalatoplatinum(IV) [Complex 3] |
| ~23 | (OC-6-54)-Acetato(3-carboxypropanoato)(^13C2)oxalato(1R,2R,4R/1S,2S,4S)-(4-trifluoromethyl-cyclohexane-1,2-diamine)platinum(IV) [Complex 5] |

| Compound | percentage of the reduced species when measurement was stopped before the half-time [%] |
| --- | --- |
| (OC-6-44)-Acetaodiammine(3-carboxypropanoato)(cyclobutane-1,1-dicarboxylato)platinum(IV) [Complex 2] | 6 |

test system: not given; assay: not given; parameters: method as in PMID 10222430; details: cited from earlier work

| Compound | maximum tolerated dosage [mg/kg] |
| --- | --- |
| N.N.[Cl][Pt][Cl] [Cisplatin] | 3 |

test system: SW480 (colon carcinoma); assay: MTT cytotoxicity assay, 96 h exposure, SW480 cells; type: cell-based, human; details: pertains to dendrimer concentration for C1–C24
Procedure: as §1, §2

| Compound | IC50 [µM] |
| --- | --- |
| (OC-6-44)-(3-carboxypropanoato)(1R,2R-cyclohexanem-1,2-diamine)hydroxidooxalatoplatinum(IV) [Complex 7] | 20 ± 3 |
| (OC-6-44)-Acetato(3-carboxypropanoato)dichlorido(1R,2R-cyclohexane-1,2-diamine)platinum(IV) [Complex 6] | 0.85 ± 0.14 |
| (OC-6-54)-Acetato(3-carboxypropanoato)(^13C2)oxalato(1R,2R,4R/1S,2S,4S)-(4-trifluoromethyl-cyclohexane-1,2-diamine)platinum(IV) [Complex 5] | 33 ± 5 |

test system: SW480 (colon carcinoma); assay: not given; details: MTT, 96 h exposure; cited from earlier work

| Compound | IC50 [µM] |
| --- | --- |
| N.N.O=C([O-])C1(C(=O)[O-])CCC1.[Pt+2] [Carboplatin, reference compound] | 42 ± 10 |
| N.N.[Cl][Pt][Cl] [Cisplatin] | 2.3 ± 0.2 |
| O=C1[O][Pt]2([NH][C@@H]3CCCC[C@H]3[NH]2)[O]C1=O [Oxaliplatin, reference compound] | 0.29 ± 0.05 |
| (OC-6-44)-Acetaodiammine(3-carboxypropanoato)(cyclobutane-1,1-dicarboxylato)platinum(IV) [Complex 2] | > 200 |
| (OC-6-44)-Acetato(3-carboxypropanoato)(1R,2R-cyclohexane-1,2-diamine)oxalatoplatinum(IV) [Complex 3] | 22 ± 8 |
| (OC-6-44)-Acetatodiammine(3-carboxypropanoato)dichloridoplatinum(IV) [Complex 1] | 47 ± 11 |

test system: not listed separately; assay: Tumor, organ and blood distribution of platinum by ICP-MS; type: in vivo, male CT26-allograft-bearing BALB/c mice; details: 30 min and 24 h after first, 24 h after second application
Procedure: Blood was taken after 30 min and 24 h after the first application from the facial vein and terminally by cardiac puncture 24 h after the second application. To separate serum from blood pellet, blood was twice spun down at 900 g for 10 min at 4 °C. The platinum amount of all samples was measured by ICP-MS.
Renal excretion and glomerular filtration are typical for ≤G4 PAMAM dendrimers and in general for nanoparticles smaller than 5 nm. […] Additionally, the influence of the molecular weight of nanoparticles on the biodistribution behavior was reported previously. […] On the contrary, the efficient kidney accumulation of this dendrimer preparation might also be considered in kidney-specific drug delivery approaches.

| Compound | platinum content of blood cells |
| --- | --- |
| N.N.[Cl][Pt][Cl] [Cisplatin] | blood cells contained enhanced platinum contents |

same assay, conditions: 24 h after second application

| Compound | platinum levels in lung tissue |
| --- | --- |
| N.N.[Cl][Pt][Cl] [Cisplatin] | higher levels were detected in lung tissue |
